Measured values from patent publication US9572862B2, “Methods for promoting lipolysis and oxidation in liver and adipose tissue using catestatin” (The Regents of the University of California, priority 2012, dated 2017).
“Also recorded” adds a separate entry of the source. No end group written: not given here.

How the values were obtained:
phospholipase C (PLC) = details: 3T3-L1 adipocytes
Procedure: FIG. 5. Regulation of adrenergic signaling by CST as measured by cAMP production, phospholipase C activity, and lipolytic glycerol release. (A) Effects of CST (100 nM, 10 min) on cAMP production in PC-12 and 3T3-L1 cells pretreated with saline or isoproterenol (ISO) (10 μM) for 10 min. (B) Effects of CST on phospholipase C activity in 3T3-L1 adipocytes pretreated with phenylephrine or epinephrine (10 μM for 10 min). (C) Effects of CST on glycerol release from adipocytes pretreated with ISO, phenylephrine (PEP), and phentolamine (PTA) (10 μM for 10 min).

[1] = system: AMPK and Stat3 phosphorylation; experiment: AMPK and Stat3 signaling in adipose tissue explants from Chga-KO mice; assay type: cell-based
Procedure: FIG. 6. Regulation of AMPK and Stat3 signaling by CST in adipose tissue explants. Explants from Chga-KO mice were treated with saline or CST (100 nM for 30 min) and immunoblotted for pAMPK and AMPK (A). Adipose explants from WT and Chga-KO mice were immunoblotted for pAMPK and AMPK after treatment with saline or leptin (1 μM) for 30 min (B). pAMPK and AMPK (C) and pStat3 and Stat3 (D) signaling in adipose explants from WT and Chga-KO mice after treatment for 30 min with saline, CST (100 nM), leptin (1 μM) or leptin plus CST.
Adipose tissue explants were prepared as described (42). Epididymal fat pads from 12 hr fasted WT, Chga-KO, DIO and Ob/Ob mice with or without CST treatment were collected in Kreb-Ringer-phosphate (KRP) buffer containing 10 mM Hepes and 0.5% BSA. Tissues were minced to 1-2 mm size and treated with 100 nM CST, 1 μM leptin, or saline for 30 min (for signaling analysis) or 3 hr (for lipolysis and β-oxidation assays). Explants were also treated acutely with CST, leptin, a combination, or saline. At the end, incubation media were saved for analysis of glycerol and fatty acid release. Explants were washed prior to homogenization for immunoblotting and analysis of fatty acid oxidation.
Adipose tissue explants after treatments ex vivo and tissues from mice treated in vivo were homogenized in a buffer containing phosphatase and protease inhibitors (20 mM Tris/HCl (pH 7.5), 250 mM sucrose, 2 mM EDTA, 2 mM EGTA, 2 mM Na3VO4, 10 mM NaF, 2 mM Na4P2O7, 1 mM phenylmethylsulfonyl fluoride, 20 μg/ml leupeptin, 10 μg/ml aprotinin, and 1 μM LR-microcystin) as described (38,44). Homogenates were subjected to SDS-PAGE and immunoblotted. Primary antibodies for AMPK and Stat3 were from Cell Signaling Technology (Beverly, Mass.). The chemiluminescence kit was from Pierce (Rockford, Ill.).

DIO mice = experiment: CST administration to DIO mice for 16 days; assay type: in vivo
Procedure: (§1) FIG. 7. Effects of CST administration to DIO and Ob/Ob mice on food intake, body weight, adipose tissue weight, and lipolysis. CST (5 μg/g BW, i.p./day) or saline was administered to DIO and Ob/Ob mice for 16 days. Food intake for DIO mice (A) and Ob/Ob mice (B) was measured every other day. Percent changes in final body weight and WAT mass (as % of body weight) were determined for DIO (C) and Ob/Ob (D) mice. Plasma glycerol (E) and NEFA (F) were quantified for DIO and Ob/Ob mice at the end of CST treatment.
(§2) Adult male (7 month old) WT (31.8±1.2 g) and Chga-KO (39.2±1.5 g) mice in the mixed genetic background (129SvJ×C57BL/6) were studied. Both genotypes were generated from the original founder carrying mixed genotype (50% 129SvJ, 50% C57BL/6) and were maintained by sibling mating. Animals were kept in a 12 hr dark/light cycle and fed standard chow ad libitum. Male C57BL/6 mice, 8 week old, were fed 60% high fat diet (D12492: Research Diets, Inc., New Brunswick) for 16 weeks before using for experiments. Male leptin-deficient (C57BL/6J-Ob/Ob) mice from the Jackson Laboratory were maintained on a standard chow diet. The Institutional Animal Care and Utilization Committee approved all procedures. Chga-KO, DIO and Ob/Ob mice were treated daily with saline or CST (5 μg/g BW, i.p.; 12 days for Chga-KO mice and 16 days for DIO and Ob/Ob mice).
(§3) Mice were fasted for 12 hr prior to blood draw. Triglycerides (TG) and non-esterified fatty acids (NEFA) were assayed using kits from Wako Diagnostics (Richmond, Va.). Glycerol was assayed using a kit from Sigma (St Louis, Mo.). Media from the explant cultures and mouse serum were analysed for glycerol and NEFA as a measure of lipolysis. ELISA kits were used to determine plasma levels of leptin, adiponectin (Millipore, Billerica, Mass.) and CST (Bachem, Torrance, Calif.). For CST assay, plasma samples and reference standards were passed through mini C18 columns and the flow-through fractions were assayed. The same kits were used for measurements in culture media.

Ob/Ob mice = experiment: CST administration to Ob/Ob mice for 16 days; assay type: in vivo
Procedure: as §1, §2, §3

CST-KO mice = experiment: CST supplementation in NCD-fed CST-KO mice; assay type: in vivo
Procedure: FIG. 13. Changes in biochemical and physiological parameters in NCD-fed CST-KO mice after CST (5 μg/g BW) supplementation. […] Figures in parentheses indicate number of animals.

HFD-fed CST-KO mice = experiment: CST supplementation in HFD-fed CST-KO mice; assay type: in vivo
Excerpt: FIG. 12. Metabolic phenotypes in HFD-fed CST-KO mice. (A) CST-KO mice eat more 60% HFD than WT. (B) CST-KO mice gained more weight than WT. (C) Heightened glucose resistance at baseline in CST-KO mice compared to WT mice. […] Figures in parentheses indicate number of animals.

[2] = CST-KO mice, CST 5 μg/g BW for 8 days

For SSMKLSFRARAYGFRGPGPQL [CST], the “PLC activity, substance by itself” value (phospholipase C (PLC)) was “mildly stimulates PLC”, the “PLC activation by epinephrine” value (phospholipase C (PLC); epinephrine 10 μM 10 min) was “attenuated” and the “PLC activation by phenylephrine” value (phospholipase C (PLC); phenylephrine 10 μM 10 min) was “attenuated”. For the same sequence, the “Stat3 phosphorylation, CST alone” value [1] was “lack of CST stimulation of Stat3 phosphorylation”, the “leptin's ability to stimulate the phosphorylation of AMPK” value ([1]; CST plus leptin) was “restored” and the “leptin's ability to stimulate the phosphorylation of Stat3” value ([1]; CST plus leptin) was “restored”. For the same sequence, the “AMPK phosphorylation, CST alone” value ([1]; acute CST 100 nM 30 min) was “stimulated AMPK phosphorylation; also recorded: significantly stimulated pAMPK signaling”, the food intake (DIO mice; CST 5 μg/g BW i.p./day 16 days) was “did not change” and the “decrease in adipose tissue mass” value (DIO mice; CST 16 days) was “about 2 g”. The “plasma concentration of NEFA (lipolysis)” value (DIO mice; CST 16 days) was “increased”, the “plasma concentration of glycerol (lipolysis)” value (DIO mice; CST 16 days) was “increased” and the food intake (Ob/Ob mice; CST 5 μg/g BW i.p./day 16 days) was “started to level off”. The adipose tissue mass (Ob/Ob mice; CST 16 days) was “not reflected in any decrease in body weight or adipose tissue mass”, the body weight (Ob/Ob mice; CST 16 days) was “not reflected in any decrease in body weight” and the “plasma concentration of NEFA (lipolysis)” value (Ob/Ob mice; CST 16 days) was “not affected”. The “plasma concentration of glycerol (lipolysis)” value (Ob/Ob mice; CST 16 days) was “not affected”, the “plasma NEFA” value (CST-KO mice; [2]) was “reduced; also recorded: decreased” and the “plasma TG” value (CST-KO mice; [2]) was “reduced; also recorded: decreased”. The plasma catecholamine (CST-KO mice; [2]) was “reduced; also recorded: normalized high plasma catecholamines”, the plasma glycerol (CST-KO mice; [2]) was “increase; also recorded: increased plasma glycerol” and the plasma insulin (CST-KO mice; [2]) was “reduced; also recorded: normalized the plasma insulin concentration to the WT level; also recorded: normalized hyperinsulinemia”. The plasma leptin (CST-KO mice; [2]) was “reduced; also recorded: normalized hyperleptinemia”, the hypertensive phenotype (CST-KO mice; CST-KO mice, CST supplementation) was “normalized” and the “glucose tolerance by IP-GTT” value (CST-KO mice; NCD-fed CST-KO mice, CST 5 μg/g BW for 8 days) was “restored glucose tolerance; also recorded: improved glucose tolerance; also recorded: improved insulin resistance”. The “insulin sensitivity / glucose tolerance by IP-ITT” value (CST-KO mice; NCD-fed CST-KO mice, CST supplementation) was “improved insulin sensitivity; also recorded: restored glucose tolerance; also recorded: improved insulin resistance”, the “basal plasma insulin level” value (HFD-fed CST-KO mice) was “decreased; also recorded: reduced hyperinsulinemia” and the “insulin sensitivity (IP-ITT)” value (HFD-fed CST-KO mice; CST 5 μg/g BW) was “improved insulin sensitivity; also recorded: reversed glucose resistance to glucose tolerance”.
